Literature values as cited in patent US20030225101A1 (priority 2002, published 2003).

Assays:
[1] = oral administration
[2] = test system: isolated corpus cavernosum

Compound: CCCc1nn(C)c2c(=O)[nH]c(-c3cc(S(=O)(=O)N4CCN(C)CC4)ccc3OCC)nc12 [sildenafil, 1-[4-ethoxy-3-(6,7-dihydro-1-methyl-7-oxo-3-propyl-1H-pyrazolo[4,3-d]pyrimidin-5-yl)phenylsulphonyl]-4-methylpiperazine]
- absolute bioavailability [1]: about 40%
- direct relaxant effect on isolated corpus cavernosum [2]: no direct relaxant effect
